Measured values: ChEMBL document CHEMBL3259571, “Diacylglycerol lactones targeting the structural features that distinguish the atypical C1 domains of protein kinase C ζ and ι from typical C1 domains” (J Med Chem, 2014)

test system: not listed separately; test: Displacement of [20-3H]PDBu from GST-tagged mouse PKC-delta C1B domain N7R/L20R mutant expressed in Escherichia coli after 2 to 30 mins by polyethylene glycol precipitation assay in presence of phosphatidylserine

Row | Compound | Ki [nM]
1 | CC(C)C(CC(=O)OCC1(CO)C/C(=C\c2ccc(C(=O)O)cc2)C(=O)O1)C(C)C (stereo unspecified) | 117000
2 | CC(C)(C)C(=O)OCC1(CO)C/C(=C\c2cccc(C(=O)O)c2)C(=O)O1 (stereo unspecified) | 105000
3 | CC(C)C(CC(=O)OCC1(CO)C/C(=C\c2ccccc2O)C(=O)O1)C(C)C (stereo unspecified) | 239
4 | CC(C)(C)C(=O)OCC1(CO)C/C(=C\c2ccc(C(=O)O)cc2)C(=O)O1 (stereo unspecified) | 83400

species: Mus musculus; test: Selectivity ratio of Ki for GST-tagged mouse PKC-delta C1B domain N7R/S10R/P11R mutant to Kd for GST-tagged full-length mouse PKC-delta C1B domain

Row | Selectivity ratio | Compound
5 | 21.3 | CC(C)C(CC(=O)OCC1(CO)C/C(=C\c2ccccc2O)C(=O)O1)C(C)C (stereo unspecified)

species: Mus musculus; test: Selectivity ratio of Ki for GST-tagged mouse PKC-delta C1B domain N7R mutant to Kd for GST-tagged full-length mouse PKC-delta C1B domain

Row | Selectivity ratio | Compound
6 | 1.41 | CC(C)C(CC(=O)OCC1(CO)C/C(=C\c2ccc(C(=O)O)cc2)C(=O)O1)C(C)C (stereo unspecified)
7 | 1.44 | CC(C)(C)C(=O)OCC1(CO)C/C(=C\c2cccc(C(=O)O)c2)C(=O)O1 (stereo unspecified)
8 | 1.12 | CC(C)C(CC(=O)OCC1(CO)C/C(=C\c2ccccc2O)C(=O)O1)C(C)C (stereo unspecified)
9 | 0.82 | CC(C)(C)C(=O)OCC1(CO)C/C(=C\c2ccc(C(=O)O)cc2)C(=O)O1 (stereo unspecified)

test system: not listed separately; test: Displacement of [20-3H]PDBu from GST-tagged mouse PKC-delta C1B domain N7R mutant expressed in Escherichia coli after 2 to 30 mins by polyethylene glycol precipitation assay in presence of phosphatidylserine

Row | Compound | Ki [nM]
10 | CC(C)C(CC(=O)OCC1(CO)C/C(=C\c2ccc(C(=O)O)cc2)C(=O)O1)C(C)C (stereo unspecified) | 787
11 | CC(C)(C)C(=O)OCC1(CO)C/C(=C\c2cccc(C(=O)O)c2)C(=O)O1 (stereo unspecified) | 1740
12 | CC(C)C(CC(=O)OCC1(CO)C/C(=C\c2ccccc2O)C(=O)O1)C(C)C (stereo unspecified) | 3.29
13 | CC(C)(C)C(=O)OCC1(CO)C/C(=C\c2ccc(C(=O)O)cc2)C(=O)O1 (stereo unspecified) | 880

species: Mus musculus; test: Selectivity ratio of Ki for GST-tagged mouse PKC-delta C1B domain S10R mutant to Kd for GST-tagged full-length mouse PKC-delta C1B domain

Row | Selectivity ratio | Compound
14 | 1.45 | CC(C)C(CC(=O)OCC1(CO)C/C(=C\c2ccc(C(=O)O)cc2)C(=O)O1)C(C)C (stereo unspecified)
15 | 1.46 | CC(C)(C)C(=O)OCC1(CO)C/C(=C\c2cccc(C(=O)O)c2)C(=O)O1 (stereo unspecified)
16 | 0.79 | CC(C)C(CC(=O)OCC1(CO)C/C(=C\c2ccccc2O)C(=O)O1)C(C)C (stereo unspecified)
17 | 0.62 | CC(C)(C)C(=O)OCC1(CO)C/C(=C\c2ccc(C(=O)O)cc2)C(=O)O1 (stereo unspecified)

species: Mus musculus; test: Selectivity ratio of Ki for GST-tagged mouse PKC-delta C1B domain N7R/L20R mutant to Kd for GST-tagged full-length mouse PKC-delta C1B domain

Row | Selectivity ratio | Compound
18 | 209 | CC(C)C(CC(=O)OCC1(CO)C/C(=C\c2ccc(C(=O)O)cc2)C(=O)O1)C(C)C (stereo unspecified)
19 | 87 | CC(C)(C)C(=O)OCC1(CO)C/C(=C\c2cccc(C(=O)O)c2)C(=O)O1 (stereo unspecified)
20 | 81 | CC(C)C(CC(=O)OCC1(CO)C/C(=C\c2ccccc2O)C(=O)O1)C(C)C (stereo unspecified)
21 | 78 | CC(C)(C)C(=O)OCC1(CO)C/C(=C\c2ccc(C(=O)O)cc2)C(=O)O1 (stereo unspecified)

test system: not listed separately; test: Displacement of [20-3H]PDBu from GST-tagged mouse PKC-delta C1B domain N7R/S10R/P11R mutant expressed in Escherichia coli after 2 to 30 mins by polyethylene glycol precipitation assay in presence of phosphatidylserine

Row | Compound | Ki [nM]
22 | CC(C)C(CC(=O)OCC1(CO)C/C(=C\c2ccccc2O)C(=O)O1)C(C)C (stereo unspecified) | 63

test system: not listed separately; test: Displacement of [20-3H]PDBu from GST-tagged mouse PKC-delta C1B domain N7R/S10R/L20R mutant expressed in Escherichia coli after 2 to 30 mins by polyethylene glycol precipitation assay in presence of phosphatidylserine

Row | Compound | Ki [nM]
23 | CC(C)C(CC(=O)OCC1(CO)C/C(=C\c2ccccc2O)C(=O)O1)C(C)C (stereo unspecified) | 661

test system: not listed separately; test: Displacement of [20-3H]PDBu from GST-tagged mouse PKC-delta C1B domain N7R/P11R mutant expressed in Escherichia coli after 2 to 30 mins by polyethylene glycol precipitation assay in presence of phosphatidylserine

Row | Compound | Ki [nM]
24 | CC(C)C(CC(=O)OCC1(CO)C/C(=C\c2ccc(C(=O)O)cc2)C(=O)O1)C(C)C (stereo unspecified) | 3800
25 | CC(C)(C)C(=O)OCC1(CO)C/C(=C\c2cccc(C(=O)O)c2)C(=O)O1 (stereo unspecified) | 16000
26 | CC(C)C(CC(=O)OCC1(CO)C/C(=C\c2ccccc2O)C(=O)O1)C(C)C (stereo unspecified) | 37
27 | CC(C)(C)C(=O)OCC1(CO)C/C(=C\c2ccc(C(=O)O)cc2)C(=O)O1 (stereo unspecified) | 3700

molecular target: Protein kinase C delta type (Mus musculus, UniProt P28867); test: Displacement of [20-3H]PDBu from GST-tagged full-length mouse PKC-delta C1B domain expressed in Escherichia coli after 2 to 30 mins by polyethylene glycol precipitation assay in presence of phosphatidylserine
Sequence (P28867 whole entry, the tested form may be a part): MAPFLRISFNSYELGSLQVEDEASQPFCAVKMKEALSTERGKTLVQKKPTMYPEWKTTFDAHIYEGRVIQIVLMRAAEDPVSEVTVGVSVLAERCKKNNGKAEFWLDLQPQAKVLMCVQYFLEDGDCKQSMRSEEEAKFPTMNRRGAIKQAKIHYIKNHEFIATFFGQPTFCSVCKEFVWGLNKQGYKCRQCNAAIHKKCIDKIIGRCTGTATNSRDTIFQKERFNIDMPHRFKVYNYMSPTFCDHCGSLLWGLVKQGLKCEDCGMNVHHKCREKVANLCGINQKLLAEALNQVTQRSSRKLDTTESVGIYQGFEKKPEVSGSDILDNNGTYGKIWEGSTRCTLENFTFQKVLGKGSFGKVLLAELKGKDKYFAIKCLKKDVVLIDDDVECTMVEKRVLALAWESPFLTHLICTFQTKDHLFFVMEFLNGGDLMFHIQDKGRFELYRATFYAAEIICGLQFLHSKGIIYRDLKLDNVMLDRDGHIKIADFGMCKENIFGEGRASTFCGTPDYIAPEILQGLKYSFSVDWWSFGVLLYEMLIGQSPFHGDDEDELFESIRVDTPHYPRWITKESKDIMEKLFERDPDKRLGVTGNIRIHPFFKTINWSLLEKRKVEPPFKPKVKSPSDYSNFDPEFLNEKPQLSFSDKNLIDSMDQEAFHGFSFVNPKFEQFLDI

Row | Kd [nM] | Compound
28 | 560 | CC(C)C(CC(=O)OCC1(CO)C/C(=C\c2ccc(C(=O)O)cc2)C(=O)O1)C(C)C (stereo unspecified)
29 | 1210 | CC(C)(C)C(=O)OCC1(CO)C/C(=C\c2cccc(C(=O)O)c2)C(=O)O1 (stereo unspecified)
30 | 2.95 | CC(C)C(CC(=O)OCC1(CO)C/C(=C\c2ccccc2O)C(=O)O1)C(C)C (stereo unspecified)
31 | 1070 | CC(C)(C)C(=O)OCC1(CO)C/C(=C\c2ccc(C(=O)O)cc2)C(=O)O1 (stereo unspecified)

species: Mus musculus; test: Selectivity ratio of Ki for GST-tagged mouse PKC-delta C1B domain P11R mutant to Kd for GST-tagged full-length mouse PKC-delta C1B domain

Row | Selectivity ratio | Compound
32 | 1.27 | CC(C)C(CC(=O)OCC1(CO)C/C(=C\c2ccc(C(=O)O)cc2)C(=O)O1)C(C)C (stereo unspecified)
33 | 2.79 | CC(C)(C)C(=O)OCC1(CO)C/C(=C\c2cccc(C(=O)O)c2)C(=O)O1 (stereo unspecified)
34 | 3.53 | CC(C)C(CC(=O)OCC1(CO)C/C(=C\c2ccccc2O)C(=O)O1)C(C)C (stereo unspecified)
35 | 0.93 | CC(C)(C)C(=O)OCC1(CO)C/C(=C\c2ccc(C(=O)O)cc2)C(=O)O1 (stereo unspecified)

species: Mus musculus; test: Selectivity ratio of Ki for GST-tagged mouse PKC-delta C1B domain L20R mutant to Kd for GST-tagged full-length mouse PKC-delta C1B domain

Row | Selectivity ratio | Compound
36 | 12.4 | CC(C)C(CC(=O)OCC1(CO)C/C(=C\c2ccc(C(=O)O)cc2)C(=O)O1)C(C)C (stereo unspecified)
37 | 4.57 | CC(C)(C)C(=O)OCC1(CO)C/C(=C\c2cccc(C(=O)O)c2)C(=O)O1 (stereo unspecified)
38 | 4.75 | CC(C)C(CC(=O)OCC1(CO)C/C(=C\c2ccccc2O)C(=O)O1)C(C)C (stereo unspecified)
39 | 5.74 | CC(C)(C)C(=O)OCC1(CO)C/C(=C\c2ccc(C(=O)O)cc2)C(=O)O1 (stereo unspecified)

test system: not listed separately; test: Displacement of [20-3H]PDBu from GST-tagged mouse PKC-delta C1B domain S10R mutant expressed in Escherichia coli after 2 to 30 mins by polyethylene glycol precipitation assay in presence of phosphatidylserine

Row | Compound | Ki [nM]
40 | CC(C)C(CC(=O)OCC1(CO)C/C(=C\c2ccc(C(=O)O)cc2)C(=O)O1)C(C)C (stereo unspecified) | 813
41 | CC(C)(C)C(=O)OCC1(CO)C/C(=C\c2cccc(C(=O)O)c2)C(=O)O1 (stereo unspecified) | 1760
42 | CC(C)C(CC(=O)OCC1(CO)C/C(=C\c2ccccc2O)C(=O)O1)C(C)C (stereo unspecified) | 2.33
43 | CC(C)(C)C(=O)OCC1(CO)C/C(=C\c2ccc(C(=O)O)cc2)C(=O)O1 (stereo unspecified) | 667

species: Mus musculus; test: Selectivity ratio of Ki for GST-tagged mouse PKC-delta C1B domain N7R/S10R/L20R mutant to Kd for GST-tagged full-length mouse PKC-delta C1B domain

Row | Selectivity ratio | Compound
44 | 224 | CC(C)C(CC(=O)OCC1(CO)C/C(=C\c2ccccc2O)C(=O)O1)C(C)C (stereo unspecified)

species: Mus musculus; test: Selectivity ratio of Ki for GST-tagged mouse PKC-delta C1B domain N7R/P11R mutant to Kd for GST-tagged full-length mouse PKC-delta C1B domain

Row | Selectivity ratio | Compound
45 | 6.79 | CC(C)C(CC(=O)OCC1(CO)C/C(=C\c2ccc(C(=O)O)cc2)C(=O)O1)C(C)C (stereo unspecified)
46 | 13.2 | CC(C)(C)C(=O)OCC1(CO)C/C(=C\c2cccc(C(=O)O)c2)C(=O)O1 (stereo unspecified)
47 | 12.5 | CC(C)C(CC(=O)OCC1(CO)C/C(=C\c2ccccc2O)C(=O)O1)C(C)C (stereo unspecified)
48 | 3.49 | CC(C)(C)C(=O)OCC1(CO)C/C(=C\c2ccc(C(=O)O)cc2)C(=O)O1 (stereo unspecified)

test system: not listed separately; test: Displacement of [20-3H]PDBu from GST-tagged mouse PKC-delta C1B domain L20R mutant expressed in Escherichia coli after 2 to 30 mins by polyethylene glycol precipitation assay in presence of phosphatidylserine

Row | Compound | Ki [nM]
49 | CC(C)C(CC(=O)OCC1(CO)C/C(=C\c2ccc(C(=O)O)cc2)C(=O)O1)C(C)C (stereo unspecified) | 6900
50 | CC(C)(C)C(=O)OCC1(CO)C/C(=C\c2cccc(C(=O)O)c2)C(=O)O1 (stereo unspecified) | 5500
51 | CC(C)C(CC(=O)OCC1(CO)C/C(=C\c2ccccc2O)C(=O)O1)C(C)C (stereo unspecified) | 14
52 | CC(C)(C)C(=O)OCC1(CO)C/C(=C\c2ccc(C(=O)O)cc2)C(=O)O1 (stereo unspecified) | 6140

test system: not listed separately; test: Displacement of [20-3H]PDBu from GST-tagged mouse PKC-delta C1B domain P11R mutant expressed in Escherichia coli after 2 to 30 mins by polyethylene glycol precipitation assay in presence of phosphatidylserine

Row | Compound | Ki [nM]
53 | CC(C)C(CC(=O)OCC1(CO)C/C(=C\c2ccc(C(=O)O)cc2)C(=O)O1)C(C)C (stereo unspecified) | 710
54 | CC(C)(C)C(=O)OCC1(CO)C/C(=C\c2cccc(C(=O)O)c2)C(=O)O1 (stereo unspecified) | 3360
55 | CC(C)C(CC(=O)OCC1(CO)C/C(=C\c2ccccc2O)C(=O)O1)C(C)C (stereo unspecified) | 10.4
56 | CC(C)(C)C(=O)OCC1(CO)C/C(=C\c2ccc(C(=O)O)cc2)C(=O)O1 (stereo unspecified) | 998
